For 2 molecules, IC50 results are on record in ChEMBL document CHEMBL1140625 (Bioorg Med Chem, 2007).

This assay addresses Human immunodeficiency virus type 1 integrase (Human immunodeficiency virus 1, UniProt Q7ZJM1). Nature of the assay: Inhibition of HIV1 integrase.

Human immunodeficiency virus type 1 integrase, sequence (Q7ZJM1 whole entry): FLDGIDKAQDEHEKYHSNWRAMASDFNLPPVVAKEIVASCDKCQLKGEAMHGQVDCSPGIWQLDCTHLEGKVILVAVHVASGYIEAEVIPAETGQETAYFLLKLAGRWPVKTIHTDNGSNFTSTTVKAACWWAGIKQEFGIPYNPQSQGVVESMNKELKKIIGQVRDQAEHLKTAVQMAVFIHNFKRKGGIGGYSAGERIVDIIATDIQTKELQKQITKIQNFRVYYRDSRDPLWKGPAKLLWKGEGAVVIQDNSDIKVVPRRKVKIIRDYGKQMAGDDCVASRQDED

One may read the IC50 as the point on the concentration scale where inhibition reaches its midpoint. Read a high IC50 as weaker potency in that assay. In the case of `O=C(/C=C(\O)c1nc[nH]n1)c1ccc(Cc2ccc(F)cc2)[nH]1`, the IC50 is less than 1 µM.

As to `O=C(/C=C(\O)c1cc[nH]c1)c1ccc(Cc2ccc(F)cc2)o1`, the IC50 was less than 1 µM.
